# Source: paper PMC12679550 (ACS Chemical Neuroscience, 2025)
# “Also recorded” adds a separate entry of the source. Read-outs that look alike come from different tables or passages of the source.
# Legend:
# [1] = system: pERK in nontransfected HEK293 cells; experiment: ERK phosphorylation in nontransfected, knockout and antagonist-cotreated HEK293 cells; format: cell-based, human
# Procedure: Cells were serum-starved for 75 min and treated with ligands in 1 mL of fresh DMEM in the absence of serum as described in the figure legends. Cells were washed three times with ice-cold phosphate-buffered saline, lysed on ice in Radio-Immunoprecipitation Assay buffer, centrifuged to clarify the supernatant, normalized to protein concentration, and boiled in Laemmli sample buffer. Following sodium dodecyl sulfate–polyacrylamide gel electrophoresis, gels were transferred, blocked in 5% BSA and incubated with 1:1000 rabbit phospho-ERK1/2 (#9101, Cell Signaling Technology, Danvers, MA) and imaged with enhanced chemiluminescence (ECL). Blots were stripped and reprobed with rabbit ERK1/2 (#9102, Cell Signaling Technology) antibody and imaged with ECL to assess protein loading.
# [2] = target: T1, D1-dopamine receptors (Homo sapiens, UniProt P21728); experiment: Eurofins Cerep radioligand binding screen; conditions: 10 μM
# T1 construct: Eurofins Cerep; host or cells: cell membrane homogenates
# T1 sequence (P21728 whole entry): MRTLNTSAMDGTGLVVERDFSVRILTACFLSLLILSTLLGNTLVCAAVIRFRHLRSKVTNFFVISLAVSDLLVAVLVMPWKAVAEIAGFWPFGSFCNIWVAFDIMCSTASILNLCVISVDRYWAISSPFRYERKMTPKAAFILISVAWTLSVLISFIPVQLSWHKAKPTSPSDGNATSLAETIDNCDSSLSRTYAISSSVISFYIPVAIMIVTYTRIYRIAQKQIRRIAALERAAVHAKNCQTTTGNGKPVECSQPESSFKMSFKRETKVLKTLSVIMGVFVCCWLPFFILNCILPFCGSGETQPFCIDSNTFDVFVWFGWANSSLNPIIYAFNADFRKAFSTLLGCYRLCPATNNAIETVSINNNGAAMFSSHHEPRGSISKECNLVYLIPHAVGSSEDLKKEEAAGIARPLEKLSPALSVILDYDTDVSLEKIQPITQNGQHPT
# Procedure: (§1) The compounds were screened at each target once, in duplicate, at 100 nM and 10 μM. […] The assay was valid if the reliability criteria, K i or IC50 values within 1/2 Log of historical values, were met. Radioligand binding assay methods were as previously described with only minor modifications , (see table in Supplementary Figure S4 for radioligands, protein sources, and assay test conditions). Briefly, cell membrane homogenates were incubated with either an antagonist or agonist radioligand in the absence or presence of the test compound in a buffer. A specific unlabeled agonist or antagonist at the target determined nonspecific binding. Following incubation, the samples were filtered rapidly under vacuum through glass fiber filters presoaked in a buffer and rinsed several times with an ice-cold buffer using a 48-sample or 96-sample cell harvester. Using a scintillation cocktail, the filters were counted for radioactivity in a scintillation counter. Compound binding was calculated as a percent inhibition of the binding of the radioactively labeled ligand specific for each target. Preparatory methods for enzyme inhibition assays were similar to radioligand binding assays. These assays involved using a known substrate, stimulus, and/or tracer, and detection methods included LANCE, fluorimetry, photometry, luminescence, or scintillation counting (see table in Supplementary Figure S4). Results of the screening assays showing an inhibition or stimulation higher than 50% were designated “hits” and considered to represent significant effects of the test compounds.
# [3] = target: T2, D2-dopamine receptors (Homo sapiens, UniProt P14416); experiment: Eurofins Cerep radioligand binding screen; conditions: 10 μM
# T2 construct: Eurofins Cerep; host or cells: cell membrane homogenates
# T2 sequence (P14416 whole entry): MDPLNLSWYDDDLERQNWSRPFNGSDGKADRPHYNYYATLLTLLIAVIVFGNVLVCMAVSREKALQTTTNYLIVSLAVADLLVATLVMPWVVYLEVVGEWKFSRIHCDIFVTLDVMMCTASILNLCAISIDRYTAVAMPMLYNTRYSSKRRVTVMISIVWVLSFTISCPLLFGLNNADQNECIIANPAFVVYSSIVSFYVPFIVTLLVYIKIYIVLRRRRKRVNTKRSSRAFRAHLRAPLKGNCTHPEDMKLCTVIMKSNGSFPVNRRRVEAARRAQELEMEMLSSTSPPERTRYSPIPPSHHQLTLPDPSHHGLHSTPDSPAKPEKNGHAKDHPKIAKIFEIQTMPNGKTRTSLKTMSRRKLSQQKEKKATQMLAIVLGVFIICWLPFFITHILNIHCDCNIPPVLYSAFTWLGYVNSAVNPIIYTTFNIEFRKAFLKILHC
# Procedure: as §1
# [4] = target: T3, D3-dopamine receptors (Homo sapiens, UniProt P35462); experiment: Eurofins Cerep radioligand binding screen; conditions: 10 μM
# T3 construct: Eurofins Cerep; host or cells: cell membrane homogenates
# T3 sequence (P35462 whole entry): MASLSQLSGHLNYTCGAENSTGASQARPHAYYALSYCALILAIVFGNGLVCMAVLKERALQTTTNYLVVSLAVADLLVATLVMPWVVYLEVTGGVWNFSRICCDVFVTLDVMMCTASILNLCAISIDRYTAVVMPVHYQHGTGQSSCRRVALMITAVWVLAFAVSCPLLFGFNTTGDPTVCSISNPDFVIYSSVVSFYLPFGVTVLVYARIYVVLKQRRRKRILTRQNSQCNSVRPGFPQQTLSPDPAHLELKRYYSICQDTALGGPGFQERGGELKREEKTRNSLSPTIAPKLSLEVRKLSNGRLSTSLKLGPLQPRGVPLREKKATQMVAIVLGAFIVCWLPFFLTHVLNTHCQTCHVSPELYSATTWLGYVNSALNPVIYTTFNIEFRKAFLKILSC
# Procedure: as §1
# [5] = system: L-type Ca2+ channels; experiment: Eurofins Cerep radioligand binding screen; conditions: rat cerebral cortex; Figure S6
# Procedure: as §1
# [6] = target: T4, N-type Ca2+ channels (Rattus norvegicus, UniProt Q02294); experiment: Eurofins Cerep radioligand binding screen; conditions: rat cerebral cortex; Figure S6
# T4 construct: Eurofins Cerep (contract screen)
# Procedure: as §1
# [7] = target: T5, hERG potassium channels (Homo sapiens, UniProt Q12809); experiment: Eurofins Cerep radioligand binding screen; conditions: 10 μM
# T5 construct: Eurofins Cerep; host or cells: cell membrane homogenates
# T5 sequence (Q12809 whole entry): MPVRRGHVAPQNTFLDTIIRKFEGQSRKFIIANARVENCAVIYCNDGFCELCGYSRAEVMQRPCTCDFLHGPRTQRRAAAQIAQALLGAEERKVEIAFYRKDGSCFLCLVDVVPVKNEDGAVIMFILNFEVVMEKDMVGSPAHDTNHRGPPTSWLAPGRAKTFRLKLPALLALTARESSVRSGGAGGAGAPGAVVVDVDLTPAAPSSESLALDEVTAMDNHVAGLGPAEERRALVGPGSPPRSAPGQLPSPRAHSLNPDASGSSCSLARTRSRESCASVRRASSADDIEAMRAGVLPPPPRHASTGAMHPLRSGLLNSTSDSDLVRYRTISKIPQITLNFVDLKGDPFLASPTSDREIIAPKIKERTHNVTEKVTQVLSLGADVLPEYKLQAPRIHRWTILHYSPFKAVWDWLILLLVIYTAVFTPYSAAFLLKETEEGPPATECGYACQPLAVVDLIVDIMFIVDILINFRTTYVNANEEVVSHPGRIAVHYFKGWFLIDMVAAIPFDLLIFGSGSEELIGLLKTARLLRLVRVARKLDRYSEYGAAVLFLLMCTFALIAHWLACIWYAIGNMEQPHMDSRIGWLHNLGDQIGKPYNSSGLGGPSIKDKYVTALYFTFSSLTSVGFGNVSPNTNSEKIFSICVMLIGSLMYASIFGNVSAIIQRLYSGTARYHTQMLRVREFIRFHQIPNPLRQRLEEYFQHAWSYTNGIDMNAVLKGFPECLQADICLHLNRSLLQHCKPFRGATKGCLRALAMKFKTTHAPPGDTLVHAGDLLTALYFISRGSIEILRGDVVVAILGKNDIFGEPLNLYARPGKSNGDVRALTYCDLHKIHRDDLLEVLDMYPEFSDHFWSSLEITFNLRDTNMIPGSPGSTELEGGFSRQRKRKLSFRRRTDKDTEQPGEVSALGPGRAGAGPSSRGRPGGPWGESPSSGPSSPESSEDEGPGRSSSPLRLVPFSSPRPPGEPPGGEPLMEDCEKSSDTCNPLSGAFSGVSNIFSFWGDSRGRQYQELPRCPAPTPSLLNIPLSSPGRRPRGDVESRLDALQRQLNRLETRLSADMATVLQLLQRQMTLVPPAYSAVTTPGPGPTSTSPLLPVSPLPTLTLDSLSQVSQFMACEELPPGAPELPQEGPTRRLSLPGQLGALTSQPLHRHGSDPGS
# Procedure: as §1
# [8] = target: T6, serotonin transporter (Homo sapiens, UniProt P31645); experiment: Eurofins Cerep radioligand binding screen; conditions: 10 μM
# T6 construct: Eurofins Cerep; host or cells: cell membrane homogenates
# T6 sequence (P31645 whole entry): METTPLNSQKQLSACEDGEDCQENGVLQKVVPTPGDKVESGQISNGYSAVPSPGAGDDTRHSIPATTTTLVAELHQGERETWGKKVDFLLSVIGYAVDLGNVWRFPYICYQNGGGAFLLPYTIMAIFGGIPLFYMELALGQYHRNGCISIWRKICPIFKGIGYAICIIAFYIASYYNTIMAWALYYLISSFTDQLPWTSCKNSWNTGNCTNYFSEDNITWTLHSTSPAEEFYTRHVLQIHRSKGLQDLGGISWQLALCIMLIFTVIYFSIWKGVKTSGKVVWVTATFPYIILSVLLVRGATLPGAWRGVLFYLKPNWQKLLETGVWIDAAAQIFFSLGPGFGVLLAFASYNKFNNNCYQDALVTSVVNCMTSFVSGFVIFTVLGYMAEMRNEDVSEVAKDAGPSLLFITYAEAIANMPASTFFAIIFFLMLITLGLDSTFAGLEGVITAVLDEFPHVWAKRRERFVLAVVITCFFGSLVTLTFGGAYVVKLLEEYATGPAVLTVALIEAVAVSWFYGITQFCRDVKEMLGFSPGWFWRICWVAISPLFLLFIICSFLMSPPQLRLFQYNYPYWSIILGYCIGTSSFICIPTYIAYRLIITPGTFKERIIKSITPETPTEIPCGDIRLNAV
# Procedure: as §1
# [9] = system: voltage-gated sodium channels; experiment: Eurofins Cerep radioligand binding screen; conditions: 10 μM
# Procedure: as §1
# [10] = target: T7, β2-adrenoceptors (Homo sapiens, UniProt P07550); experiment: Eurofins Cerep radioligand binding screen; conditions: 10 μM
# T7 construct: Eurofins Cerep; host or cells: cell membrane homogenates
# Procedure: as §1
# [11] = target: T8, α2AR (Homo sapiens, UniProt P08913)
# T8 sequence (P08913 1-465): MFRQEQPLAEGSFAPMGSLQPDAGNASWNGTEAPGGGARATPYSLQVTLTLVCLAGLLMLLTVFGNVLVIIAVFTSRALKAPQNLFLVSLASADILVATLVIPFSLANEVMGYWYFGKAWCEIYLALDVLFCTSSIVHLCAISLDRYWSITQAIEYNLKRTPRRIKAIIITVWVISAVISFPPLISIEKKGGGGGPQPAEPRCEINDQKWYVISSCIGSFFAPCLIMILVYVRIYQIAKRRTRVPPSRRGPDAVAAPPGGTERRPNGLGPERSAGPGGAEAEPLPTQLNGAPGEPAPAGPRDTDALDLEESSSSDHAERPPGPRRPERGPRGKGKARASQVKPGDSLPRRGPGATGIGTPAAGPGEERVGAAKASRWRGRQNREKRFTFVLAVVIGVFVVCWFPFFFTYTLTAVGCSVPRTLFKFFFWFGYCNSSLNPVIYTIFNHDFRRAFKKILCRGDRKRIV
# [12] = target: T9, rat α2AR (Rattus norvegicus, UniProt P22909); conditions: agonist mode; CHO-K1 cells
# T9 sequence (P22909 1-465): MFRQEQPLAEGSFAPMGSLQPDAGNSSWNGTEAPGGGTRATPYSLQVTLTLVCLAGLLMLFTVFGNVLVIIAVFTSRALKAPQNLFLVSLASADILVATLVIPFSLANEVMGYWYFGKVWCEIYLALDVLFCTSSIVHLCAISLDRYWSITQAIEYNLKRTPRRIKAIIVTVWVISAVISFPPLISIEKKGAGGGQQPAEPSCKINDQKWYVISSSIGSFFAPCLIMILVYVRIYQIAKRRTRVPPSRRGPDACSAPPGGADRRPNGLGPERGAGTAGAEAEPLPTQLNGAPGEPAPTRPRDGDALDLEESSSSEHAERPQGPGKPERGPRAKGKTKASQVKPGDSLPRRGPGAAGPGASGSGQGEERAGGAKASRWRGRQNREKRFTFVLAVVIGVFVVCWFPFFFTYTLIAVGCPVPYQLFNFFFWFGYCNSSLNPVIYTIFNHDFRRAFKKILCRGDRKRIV
# [13] = target: T9, rat α2AR; conditions: agonist mode; HEK293 cells; Figure S2
# [14] = target: T8, α2AR; remark: listed apart in the source
# [15] = target: T8, α2AR; remark: listed apart in the source
# [16] = target: human α2BRs (Homo sapiens, UniProt P18089); conditions: 10 μM screen
# Sequence of human α2BRs (P18089 whole entry): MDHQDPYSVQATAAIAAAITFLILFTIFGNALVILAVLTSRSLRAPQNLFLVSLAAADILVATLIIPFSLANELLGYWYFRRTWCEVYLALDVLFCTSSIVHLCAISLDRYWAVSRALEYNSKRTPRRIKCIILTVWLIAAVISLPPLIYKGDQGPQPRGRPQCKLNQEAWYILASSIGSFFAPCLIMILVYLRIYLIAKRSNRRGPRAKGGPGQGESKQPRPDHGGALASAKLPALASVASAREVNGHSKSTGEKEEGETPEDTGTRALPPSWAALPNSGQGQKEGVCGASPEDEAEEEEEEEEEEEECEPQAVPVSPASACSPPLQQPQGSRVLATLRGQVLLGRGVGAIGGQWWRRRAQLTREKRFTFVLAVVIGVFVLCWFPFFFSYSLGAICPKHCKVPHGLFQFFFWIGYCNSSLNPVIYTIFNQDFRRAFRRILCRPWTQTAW
substance,measurement,setting,value
mitragynine,pERK-stimulating effect in Gαq/11 knockout HEK293 cells,"[1]; 1 μM, 5 min, vs CRISPR scrambled",abolished
same,pERK-stimulating effect with 100 nM atipamezole cotreatment,[1]; HEK293,did not affect
same,pERK-stimulating effect with 100 nM prazosin cotreatment,"[1]; HEK293, CLON and ISO 1 μM, mitragynine 1 μM",abolished
same,"Inhibition of radioligand binding, D1-dopamine receptors",[2],~73%
same,"Inhibition of radioligand binding, D2-dopamine receptors",[3],~70%
same,"Inhibition of radioligand binding, D3-dopamine receptors",[4],~57%
same,Affinity at L-type Ca2+ channels,[5],no appreciable affinity
same,Affinity at N-type Ca2+ channels,[6],no appreciable affinity
same,"Inhibition of radioligand binding, hERG potassium channels",[7],~51%
same,"Inhibition of radioligand binding, serotonin transporter",[8],~51%
same,"Inhibition of radioligand binding, voltage-gated sodium channels",[9],~71%
same,"Inhibition of specific radioligand binding, β2-adrenoceptors",[10],> 60%
same,"Effect on forskolin-stimulated cAMP, human α2AR","[11]; agonist mode, CHO-K1 cells",did not impact forskolin-stimulated cAMP accumulation
same,Kb,"[11]; read-out: Kb, antagonist, cAMP, human α2AR, antagonism of clonidine, Gaddum-Schild analysis of first plateau",4.17 µM
same,"Effect on forskolin-stimulated cAMP, rat α2AR",[12],did not decrease forskolin-stimulated cAMP accumulation
same,"Effect on forskolin-induced cAMP, rat α2AR in HEK293",[13],no significant functional effects
same,Kb,"[14]; read-out: Kb, antagonist, β-arrestin, antagonist mode vs EC80 (0.01 μM) UK 14,304, Cheng–Prusoff",5.01 µM
same,"β-arrestin2 recruitment, agonist mode",[14]; α2AR-expressing CHO-K1 cells,did not recruit β-arrestin2
same,Activation of α2AR-Gαs(short),[15]; Figure S1,did not activate α2AR–Gαs; also recorded: no effect
same,Activation of the seven Gαi/o-protein subtypes coupled to α2AR,[15]; concentrations up to 30 μM,did not activate any of the seven Gαi/o-protein subtypes
same,Activation of Gαq or Gα11 via α2ARs,[15]; data not shown,no effect
same,Kb,"[15]; read-out: Kb, antagonist, αi1, α2AR-Gαi1, antagonism of clonidine, Gaddum-Schild",5.65 µM
same,"EC50, αgust",[15]; α2AR-Gαgust,inactive
same,"EC50, αi2",[15]; α2AR-Gαi2,inactive
same,"EC50, αi3",[15]; α2AR-Gαi3,inactive
same,"EC50, αoA",[15]; α2AR-GαoA,inactive
same,"EC50, αoB",[15]; α2AR-GαoB,inactive
same,"EC50, αz",[15]; α2AR-Gαz,inactive
same,Activation of Gαi/o subtypes coupled to α2BRs,[16],no significant activity
